Literature values as cited in US6087087A, “Treatment of hemoglobin with nitric oxide” (Yonetani; Takashi, priority 1998, dated 2000).
Read-outs that look alike come from different tables or passages of the source.

Key:
Hb in rats = conditions: nitroglycerin-induced
blood of the rat = conditions: rat treated with nitroglycerin

| Compound | α-nitrosylHb formed, of the total heme of Hb (Hb in rats) | right shift of the O2 binding curve of blood (blood of the rat) | affinity of NO for Hb relative to CO (Hb (hemoglobin)) | affinity of NO for Hb relative to CO (Hb (hemoglobin); listed as nitric oxide) |
| --- | --- | --- | --- | --- |
| O=[N+]([O-])OCC(CO[N+](=O)[O-])O[N+](=O)[O-] [nitroglycerin] | less than 2% | approximately 10 torr | – | – |
| nitric oxide [NO] | – | – | > 10^3 fold | more than a thousand-fold higher affinity |
